Read-outs that look alike come from different tables or passages of the source.

The source of these data is patent publication US20100227923A1, “PREVENTIVE/REMEDY FOR URINARY CALCULOSIS” (GODO SHUSEI CO., LTD., priority 2006, published 2010).

The conditions of data set [1]: Non-Patent Documents 4 to 6; cited from earlier work.
The conditions of data set [2]: Non-Patent Documents 4 to 6; cited from earlier work. This is another data set of the same source.
The test system of a further data set is mice. Kind of data set: Single-dose peroral safety experiment of mice (LD50). The format is in vivo.
Data set [3] in a line: Percent urine excretion (24 hours) of rats after intravenous administration. It counts as in vivo, Wistar rats. The note with it: for Percent urine excretion (24 hours): rats, 0.5 mmol/kg i.v., av. ± standard error. As to the method: (§1) The percent urine excretion (24 hours) was determined in the following manner. To each of the 5- to 6-week-old male Wistar rats which had been fasted overnight, sodium L-arabonate (0.5 mmol/kg) was administered through the tail vein. The rats were placed in a metabolic cage where urine was collected for 24 hours. After removal of protein from the blood samples and urine samples, the blood L-arabonic acid level of each sample was determined through HPLC. Instead of L-arabonic acid, sodium D-gluconate was administered to the rats of the control group. The blood sodium D-gluconate level was determined by means of an F-kit (product of Roche Diagnostic).

The nature of data set [4]: Blood level of rats after intravenous administration. It counts as in vivo, Wistar rats. As to the method: After fasting overnight, 10- to 11-week old Wistar male rats were anesthetized with Nembutal, and sodium L-arabonate (0.5 mmol/kg) was administered through the femoral vein of each rat. Blood was sampled through the carotid artery as time elapsed, whereby the L-arabonic acid level was determined. Blood collection was performed by means of a heparin-treated capillary before administration and 5 min, 15 min, 30 min, and 1 hour after administration.
as §1

Turning to `O=C(O)[C@H](O)[C@@H](O)[C@H](O)[C@H](O)CO` [D-gluconic acid], the “Dissolving of calcium phosphate calculi and magnesium phosphate calculi” value in data set [1] is reported as “dissolve”. Further, the “Dissolving of calcium oxalate calculi” value in data set [2] is on record as “not to dissolve”.

On to `O=C(O)[C@H](O)[C@@H](O)[C@@H](O)CO` [L-Arabonic acid, L-arabonic acid], for which the LD50 result in the data set on mice is on record as “about 10 g/kg”. Moreover, in data set [3] (rat, in vivo), the “Metabolism in the body” value was “not metabolized in the body and is immediately excreted to urine”; the “Portion of the absorbed L-arabonic acid excreted to urine” value is around 100%.

As for `O=C([O-])[C@H](O)[C@@H](O)[C@H](O)[C@H](O)CO.[Na+]` [Sodium D-gluconate, sodium D-gluconate], the “Metabolism in the body” value in data set [3] is “a large portion thereof is thought to be metabolized and consumed in the body”. The “Percent urine excretion (24 hours)” value is on record as 9.8 ± 9.76% in data set [3] and “about 10%” in data set [3] (listed as sodium D-gluconate). For the same compound, in data set [4] (rats, 0.5 mmol/kg i.v.), the “Blood D-gluconic acid level” value was “considerably low”.

Turning to `O=C([O-])[C@H](O)[C@@H](O)[C@@H](O)CO.[Na+]` [Sodium L-arabonate, sodium L-arabonate], in data set [4] (rat, in vivo, iv), the “Time at which blood level decreased to about the half value” is 22 min.
